Like-named read-outs stand apart in the source and are kept apart here.
Assays:
[1] = test system: MDCK-MDR1 cells; conditions: pH 7.4 iso-method, cited from earlier work; for Papp, inhibitor: with inhibitor; for Papp, B⟶A: without inhibitor
[2] = test system: MDCK-MDR1 cells; assay: Comparison of Papp,B-A with and without inhibitor in MDCK-MDR1 cells (own and literature data); conditions: calculated from literature Papp,B⟶A and Papp with inhibitor; pH 7.4 iso-method
[3] = test system: P-gp (MDR1); assay: in vitro; conditions: dog
[4] = in vitro; conditions: dog
[5] = test system: MDCK-II-MDR1 cells
[6] = Calculation of neutral fraction (fn)
[7] = Measurement of paracellular transport (Ppara) in MDCK-MDR1 cells with and without P-gp inhibitors; format: in vitro ADME, canine; conditions: dog, + 2 µM elacridar
Excerpt: In initial fits, we used experimentally obtained values for Ppara , determined by measuring the Papp of the relevant compound at a pH value where paracellular transport was expected to dominate. Since the compounds in this study are P-gp substrates, elacridar was also used to inhibit P-gp. Under these conditions, the measured Papp is expected to be a measure of Ppara . […]
X Measurement of paracellular transport […]
assess its relative contribution to overall flux, it is necessary to quantify paracellular transport in some way. An approximation of paracellular transport can be mathematically calculated as desc ribed in […]
and cell type can influence and complicate the predictions, leading to uncertainties. H owever, it can also be experimentally measured provided that it can be assured that the P app would be dominated by the contribution of P para . […]
compounds. In order to ensure paracellular dominance, 2 µM elacridar was used to inhibit potential P-gp facilitated efflux, and the transport buffer was set to a pH that would severely restrict the neutral […]
Table S13: P app values and measured logP para for basic and acidic marker compounds. P app values are the mean of three timepoints per replicate, for a total of three replicates (n = 3) ± standard […]
Compound pH Papp, A⟶B logP para Recovery fn
In light of the uncertainties in predicting P para , it was presumed more apt to measure P para for each compound individually in parallel with the pH dependence experiments. As described in Section 4.3 of the main text, experiments were initially performed for each tested compound with inhibitor and appropriate pH values (similar to those performed for Table S12) in an attempt to ensure the dominance of paracellular transport. These values could then be used as a direct measure for P para for each compound that could be fed to the model for its individual fit. […]
affecting P para and/or the measurement of it, we measured the P app of more commonly-used markers for paracellular transport with and without inhibitor. The transport of these rather hydrophilic compounds is known to be dominated by the paracellular route. Furthermore, for our MDCK- MDR1 […]
efflux is not expected to play a role. As such, the addition of inhibitor in this case is purely to evaluate if the P app changes when it is present.

[8] = basic, cited from earlier work
[9] = ref Troutman and Thakker (2003)

CN(C)CCC(c1ccc(Br)cc1)c1ccccn1 (stereo not drawn) [Brompheniramine]
Papp, inhibitor ([1]; ref Obradovic et al. (2007)): 76.8 ×10⁻⁶ cm/s
Papp, B⟶A ([1]; ref Obradovic et al. (2007)): 118.8 ×10⁻⁶ cm/s
Factor difference [2]: 2

CN(C)CCC(c1ccc(Cl)cc1)c1ccccn1 (stereo not drawn) [Chlorpheniramine]
Papp, inhibitor ([1]; ref Obradovic et al. (2007)): 66.2 ×10⁻⁶ cm/s
Papp, B⟶A ([1]; ref Obradovic et al. (2007)): 93.7 ×10⁻⁶ cm/s
Factor difference [2]: 1

CN/C(=N/CCSCc1nc[nH]c1C)NC#N [Cimetidine]
Papp, inhibitor ([1]; ref Doan et al. (2002)): 0.515 ×10⁻⁶ cm/s
Papp, B⟶A ([1]; ref Doan et al. (2002)): 1.89 ×10⁻⁶ cm/s
Factor difference [2]: 4

CN1CCC[C@@H]1CCO[C@](C)(c1ccccc1)c1ccc(Cl)cc1 [Clemastine]
Papp, B⟶A ([1]; ref Obradovic et al. (2007)): 156.4 ×10⁻⁶ cm/s
Factor difference [2]: 3

COc1cccc2c1C(=O)c1c(O)c3c(c(O)c1C2=O)C[C@@](O)(C(=O)CO)C[C@@H]3O[C@H]1C[C@H](N)[C@H](O)[C@H](C)O1 [Doxorubicin]
Papp ([3]; MDCK-MDR1, pH 5): 0.77 ± 0.26 ×10⁻⁶ cm/s
Papp A→B ([3]; MDCK-MDR1, pH 5): 0.457 ×10⁻⁶ cm/s
Papp B→A ([3]; MDCK-MDR1, pH 5): 0.46 ± 0.25 ×10⁻⁶ cm/s
Papp ([3]; MDCK-MDR1, pH 6): 0.16 ± 0.03 ×10⁻⁶ cm/s
Papp B→A ([3]; MDCK-MDR1, pH 6): 0.23 ± 0.08 ×10⁻⁶ cm/s
Papp ([3]; MDCK-MDR1, pH 7): 0.13 ± 0.03 ×10⁻⁶ cm/s
Papp B→A ([3]; MDCK-MDR1, pH 7): 0.78 ± 0.36 ×10⁻⁶ cm/s
Papp ([3]; MDCK-MDR1, pH 8): 0.17 ± 0.05 ×10⁻⁶ cm/s
Papp B→A ([3]; MDCK-MDR1, pH 8): 4.4 ± 0.29 ×10⁻⁶ cm/s
recovery ([4]; MDCK-MDR1, pH 5): 94 to 100%
recovery ([4]; MDCK-MDR1, pH 6): 90 to 96%
recovery ([4]; MDCK-MDR1, pH 7): 88 to 93%
recovery ([4]; MDCK-MDR1, pH 8): 64 to 71%
logPapp, B⟶A ([5]; pH 6, iso-pH method): -6.64 P in cm/s
logPapp, B⟶A ([5]; pH 7, iso-pH method): -6.11 P in cm/s
logPapp, B⟶A ([5]; pH 8, iso-pH method): -5.36 P in cm/s
fn ([6]; neutral fraction at pH 5): 0.0%
recovery ([7]; MDCK-MDR1, pH 5, with elacridar 2 µM, pH 5, n = 3 (Table S13)): 130%
Papp ([7]; MDCK-MDR1, with elacridar 2 µM, pH 5, three replicates (n = 3) (Table S13)): 0.4 ± 0.1 ×10⁻⁶ cm/s
pKa ([8]; ref Advanced Chemistry Development, 2020): 9.56

CN1CCC[C@@H]1Cc1c[nH]c2ccc(CCS(=O)(=O)c3ccccc3)cc12 [Eletriptan]
Papp, inhibitor ([1]; ref Doan et al. (2002)): 42.9 ×10⁻⁶ cm/s
Papp, B⟶A ([1]; ref Doan et al. (2002)): 66.3 ×10⁻⁶ cm/s
Factor difference [2]: 2

NS(=O)(=O)c1cc(C(=O)O)c(NCc2ccco2)cc1Cl [Furosemide]
fn ([6]; neutral fraction at pH 9): 0.0%

Nc1ccn([C@@H]2CS[C@H](CO)O2)c(=O)n1 [Lamiduvine]
Papp, inhibitor ([1]; ref De Souza et al. (2009)): 0.11 ×10⁻⁶ cm/s
Papp, B⟶A ([1]; ref De Souza et al. (2009)): 0.18 ×10⁻⁶ cm/s
Factor difference [2]: 2

CN(C)C(=O)C(CCN1CCC(O)(c2ccc(Cl)cc2)CC1)(c1ccccc1)c1ccccc1 [Loperamide]
Papp, inhibitor ([1]; ref Doan et al. (2002)): 45.6 ×10⁻⁶ cm/s
Papp, inhibitor ([1]; ref Wang et al. (2005)): 12 ×10⁻⁶ cm/s
Papp, B⟶A ([1]; ref Doan et al. (2002)): 77.3 ×10⁻⁶ cm/s
Papp, B⟶A ([1]; ref Wang et al. (2005)): 42.64 ×10⁻⁶ cm/s

C[C@H]1C[C@@H]2[C@H]([C@@H](O)C[C@@]3(C)[C@H]2CC[C@]3(O)C(=O)CO)[C@@]2(C)C=CC(=O)C=C12 [Methylprednisolone]
Papp, inhibitor [1, 9]: 28.48 ×10⁻⁶ cm/s
Papp, B⟶A [1, 9]: 94.3 ×10⁻⁶ cm/s
Factor difference [2]: 3

Cc1c(O)cccc1C(=O)N[C@@H](CSc1ccccc1)[C@H](O)CN1C[C@H]2CCCC[C@H]2C[C@H]1C(=O)NC(C)(C)C [Nelfinavir]
Papp, inhibitor ([1]; ref Doan et al. (2002)): 19.7 ×10⁻⁶ cm/s
Papp, B⟶A ([1]; ref Doan et al. (2002)): 78.6 ×10⁻⁶ cm/s
Factor difference [2]: 4

CN(C)C(=O)Oc1cccc([N+](C)(C)C)c1 [Neostigmine]
Papp, inhibitor ([1]; ref Doan et al. (2002)): 0.852 ×10⁻⁶ cm/s
Papp, B⟶A ([1]; ref Doan et al. (2002)): 1.54 ×10⁻⁶ cm/s
Factor difference [2]: 2

C=C[C@H]1C[N@@]2CC[C@H]1C[C@@H]2[C@@H](O)c1ccnc2ccc(OC)cc12 [Quinidine]
Papp, inhibitor ([1]; ref Gertz et al. (2010)): 0.176 ×10⁻⁶ cm/s
Papp, inhibitor [1, 9]: 25.6 ×10⁻⁶ cm/s
Papp, inhibitor ([1]; ref Wang et al. (2005)): 10 ×10⁻⁶ cm/s
Papp, B⟶A ([1]; ref Gertz et al. (2010)): 66.88 ×10⁻⁶ cm/s
Papp, B⟶A [1, 9]: 156 ×10⁻⁶ cm/s
Papp, B⟶A ([1]; ref Wang et al. (2005)): 114.82 ×10⁻⁶ cm/s

CNC(=C[N+](=O)[O-])NCCSCc1ccc(CN(C)C)o1 [Ranitidine]
Papp, inhibitor [1, 9]: 1.25 ×10⁻⁶ cm/s
Papp, B⟶A [1, 9]: 3.29 ×10⁻⁶ cm/s
Factor difference [2]: 3

COC(=O)c1ccccc1-c1c2ccc(=N)cc-2oc2cc(N)ccc12 [Rhodamine 123]
Papp, inhibitor ([1]; ref Tang et al. (2004)): 1.173 ×10⁻⁶ cm/s
Papp, inhibitor [1, 9]: 1.16 ×10⁻⁶ cm/s
Papp, inhibitor ([1]; ref Wang et al. (2005)): 2.2 ×10⁻⁶ cm/s
Papp, B⟶A ([1]; ref Tang et al. (2004)): 10.17 ×10⁻⁶ cm/s
Papp, B⟶A [1, 9]: 15.3 ×10⁻⁶ cm/s
Papp, B⟶A ([1]; ref Wang et al. (2005)): 7.63 ×10⁻⁶ cm/s

CC(C)c1nc(CN(C)C(=O)N[C@H](C(=O)N[C@@H](Cc2ccccc2)C[C@H](O)[C@H](Cc2ccccc2)NC(=O)OCc2cncs2)C(C)C)cs1 [Ritonavir]
Papp, B⟶A [1, 9]: 23.6 ×10⁻⁶ cm/s
Factor difference [2]: 6

CC(C)(C)NC(=O)[C@@H]1C[C@@H]2CCCC[C@@H]2CN1C[C@@H](O)[C@H](Cc1ccccc1)NC(=O)[C@H](CC(N)=O)NC(=O)c1ccc2ccccc2n1 [Saquinavir]
Papp, inhibitor ([1]; ref Doan et al. (2002)): 22 ×10⁻⁶ cm/s
Papp, inhibitor [1, 9]: 12.6 ×10⁻⁶ cm/s
Papp, B⟶A ([1]; ref Doan et al. (2002)): 39.5 ×10⁻⁶ cm/s
Papp, B⟶A [1, 9]: 108 ×10⁻⁶ cm/s

CC(C)NCC(O)c1ccc(NS(C)(=O)=O)cc1 (stereo not drawn) [Sotolol]
Papp, inhibitor ([1]; ref Liu et al. (2012)): 0.2 ×10⁻⁶ cm/s
Papp, B⟶A ([1]; ref Liu et al. (2012)): 1.05 ×10⁻⁶ cm/s
Factor difference [2]: 5

CC(C)(C)NCC(O)COc1ccc(NC(=O)NC2CCCCC2)cc1 (stereo not drawn) [Talinolol]
fn ([6]; neutral fraction at pH 8): 5%
pKa ([8]; no reference given): 9.4

CC(C)(C)c1ccc(C(O)CCCN2CCC(C(O)(c3ccccc3)c3ccccc3)CC2)cc1 (stereo not drawn) [Terfenadine]
Papp, inhibitor ([1]; ref Doan et al. (2002)): 28.5 ×10⁻⁶ cm/s
Papp, inhibitor ([1]; ref Obradovic et al. (2007)): 2.39 ×10⁻⁶ cm/s
Papp, B⟶A ([1]; ref Doan et al. (2002)): 42.1 ×10⁻⁶ cm/s
Papp, B⟶A ([1]; ref Obradovic et al. (2007)): 11.43 ×10⁻⁶ cm/s

CC[C@]1(O)C[C@@H]2CN(CCc3c([nH]c4ccccc34)[C@@](C(=O)OC)(c3cc4c(cc3OC)N(C)[C@H]3[C@@](O)(C(=O)OC)[C@H](OC(C)=O)[C@]5(CC)C=CCN6CC[C@]43[C@@H]65)C2)C1 [Vinblastine]
Papp, inhibitor ([1]; ref Taub et al. (2005)): 1.92 ×10⁻⁶ cm/s
Papp, inhibitor [1, 9]: 17.7 ×10⁻⁶ cm/s
Papp, inhibitor ([1]; ref Wang et al. (2005)): 1.2 ×10⁻⁶ cm/s
Papp, B⟶A ([1]; ref Taub et al. (2005)): 13.22 ×10⁻⁶ cm/s
Papp, B⟶A [1, 9]: 35.7 ×10⁻⁶ cm/s
Papp, B⟶A ([1]; ref Wang et al. (2005)): 10.77 ×10⁻⁶ cm/s

CCOC(=O)CN[C@@H](C(=O)N1CC[C@H]1C(=O)NCc1ccc(/C(N)=N\O)cc1)C1CCCCC1 [Ximelagatran]
Papp, inhibitor ([1]; ref Eriksson et al. (2006)): 7 ×10⁻⁶ cm/s
Papp, B⟶A ([1]; ref Eriksson et al. (2006)): 39 ×10⁻⁶ cm/s
Factor difference [2]: 6

Cc1cn([C@H]2C[C@H](N=[N+]=[N-])[C@@H](CO)O2)c(=O)[nH]c1=O [Zidovudine]
Papp, inhibitor ([1]; ref De Souza et al. (2009)): 3.26 ×10⁻⁶ cm/s
Papp, B⟶A ([1]; ref De Souza et al. (2009)): 9.98 ×10⁻⁶ cm/s
Factor difference [2]: 3
